Patent US6001867A, “1-aryl-dibenzothiophenes” (American Home Products Corporation, priority 1999, dated 1999)

Columns and labels:
[1] = target: T1, Human recombinant PTP1B (hPTP1B) (Homo sapiens, UniProt P18031)
T1 sequence (P18031 1-435): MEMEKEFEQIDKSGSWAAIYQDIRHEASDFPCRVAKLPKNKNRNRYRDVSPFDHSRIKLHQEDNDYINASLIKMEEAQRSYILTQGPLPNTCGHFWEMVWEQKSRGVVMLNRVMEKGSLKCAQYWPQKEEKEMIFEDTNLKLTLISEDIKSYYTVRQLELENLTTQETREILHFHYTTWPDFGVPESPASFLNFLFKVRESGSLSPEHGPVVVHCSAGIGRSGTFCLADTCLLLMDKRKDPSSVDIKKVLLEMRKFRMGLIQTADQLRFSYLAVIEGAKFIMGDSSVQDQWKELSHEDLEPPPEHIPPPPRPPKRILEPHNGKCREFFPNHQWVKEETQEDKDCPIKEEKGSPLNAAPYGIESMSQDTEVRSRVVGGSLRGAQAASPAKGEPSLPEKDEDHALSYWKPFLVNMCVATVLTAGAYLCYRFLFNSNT

[2] = system: rat hepatic microsomal PTPases; conditions: test compound 50 μM; rat hepatic microsomal fraction; substrate 50 uM, 37 deg.C
[3] = literature study; cited from earlier work

## O=C(O)[C@@H](Cc1ccccc1)Oc1c(Br)cc(-c2cccc3sc4ccccc4c23)cc1Br [Example 19, (R)-2-[2,6-Dibromo-4-(dibenzothiophen-1-yl)-phenoxy]-3-phenyl-propionic acid]
[1]
  IC50: 1330 nM
[2]
  % Change from Control (PTPase activity): -81.43%

## O=C(O)COc1ccc(-c2cccc3sc4ccccc4c23)cc1 [Example 12, [4-(Dibenzothiophen-1-yl)-phenoxy]-acetic Acid]
[2]
  % Change from Control (PTPase activity): -19.49%

## O=C(O)COc1c(Br)cc(-c2cccc3sc4ccccc4c23)cc1Br [Example 14, [2,6-Dibromo-4-(dibenzothiophen-1-yl)-phenoxy]-acetic acid]
[2]
  % Change from Control (PTPase activity): -74.88%

## O=C(O)[C@@H](Cc1ccccc1)Oc1c(Br)cc(-c2c(Br)ccc3sc4ccccc4c23)cc1Br [Example 20]
[1]
  IC50: 604 nM
[2]
  % Change from Control (PTPase activity): -75.69%

## Oc1ccc(-c2cccc3sc4ccccc4c23)cc1 [Example 3, 4-(Dibenzothiophen-1-yl)-phenol]
[2]
  % Change from Control (PTPase activity): -51.63%

## CN(C)c1ccc(-c2cccc3sc4ccccc4c23)cc1 [compound A (R=NMe2, R'=H)]
[3]
  carcinogenicity: inactive

## O=C(O)COc1ccc(-c2c(Br)ccc3sc4ccccc4c23)cc1 [Example 13, [4-(2-Bromo-dibenzothiophen-1-yl)-phenoxy]-acetic Acid]
[2]
  % Change from Control (PTPase activity): -42.62%

## COC(=O)COc1ccc(-c2c(Br)ccc3sc4ccccc4c23)cc1 [Example 10, [4-(2-Bromo-dibenzothiophen-1-yl)-phenoxy]-acetic Acid Methyl Ester]
[2]
  % Change from Control (PTPase activity): -21.11%

## Oc1ccc(-c2c(Br)ccc3sc4ccccc4c23)cc1 [Example 6, 4-(2-Bromo-dibenzothiophen-1-yl)-phenol]
[2]
  % Change from Control (PTPase activity): -31.13%

## Oc1c(Br)cc(-c2cccc3sc4ccccc4c23)cc1Br [Example 7, 2,6-Dibromo-4-(dibenzothiophen-1-yl)-phenol]
[1]
  IC50: 1890 nM
[2]
  % Change from Control (PTPase activity): -18.53%

## O=C(O)[C@@H](CCN1C(=O)c2ccccc2C1=O)Oc1c(Br)cc(-c2c(Br)ccc3sc4ccccc4c23)cc1Br [Example 21, (R)-2-[2,6-Dibromo-4-(2-bromo-dibenzothiophen-1-yl)-phenoxy]-4-(1,3-dioxo-1,3-dihydro-isoindol-2-yl)-butyric acid]
[1]
  IC50: 1390 nM
[2]
  % Change from Control (PTPase activity): -87.44%
